Results: ChEMBL document CHEMBL6153017, “Progress on the mechanism of natural products alleviating androgenetic alopecia” (2024)

Experiments:
Format in all cases: functional
Hair follicle [1] = assay: Upregulation of Gli mRNA expression in human hair follicle assessed as fold change at 0.5 uM measured for 48 hrs by qRT-PCR analysis
Hair follicle [2] = assay: Upregulation of PTCH mRNA expression in human hair follicle assessed as fold change at 0.5 uM measured for 48 hrs by qRT-PCR analysis
Hair follicle [3] = assay: Upregulation of SHH mRNA expression in human hair follicle assessed as fold change at 0.5 uM measured for 48 hrs by qRT-PCR analysis
Hair follicle [4] = assay: Upregulation of RBPJ mRNA expression in human hair follicle assessed as fold change at 5 ug/ml; details: dose 5 µg/ml
Hair follicle [5] = assay: Upregulation of Smo mRNA expression in human hair follicle assessed as fold change at 0.5 uM measured for 48 hrs by qRT-PCR analysis

O=C(O[C@@H]1Cc2c(O)cc(O)cc2O[C@@H]1c1cc(O)c(O)c(O)c1)c1cc(O)c(O)c(O)c1 [EPIGALOCATECHIN GALLATE]
fold change (FC) (Hair follicle [1]): 1.67
fold change (FC) (Hair follicle [2]): 4.18
fold change (FC) (Hair follicle [3]): 4.48
fold change (FC) (Hair follicle [4]): 7
fold change (FC) (Hair follicle [5]): 4.71
